Measurements reported in US8093282B2, “Therapeutic N-aryl or N-heteroaryl pyrazolidine and pyrazolidinone derivatives” (Allergan, Inc., priority 2008, dated 2012).

Tested on: lashes and adjacent hairs of the treated eye
Experiment: Eyelash / hair growth observed in glaucoma patients treated in one eye
Assay type: in vivo, human
Conditions: glaucoma patient treated in only one eye
Text: In the course of treating patients having glaucoma, treatment may only be appropriate in one eye. […] The lash appearance on the lids of the treated eyes would have appeared quite attractive if it represented a bilateral phenomenon. As a result of its asymmetric nature, the long lashes on one side could be construed as disturbing from a cosmetic standpoint. A systemic examination was preformed as a result of the asymmetric phenomenon. It soon became apparent that this altered appearance was not an isolated finding. […] Definite differences could be identified to varying degrees in the lashes and adjacent hairs of all patients who were taking the drug on a unilateral basis for longer than 6 months.
The changes in the lashes were apparent on gross inspection in several patients once attention was focused on the issue. In those with light colored hair and lashes, the differences were only seen easily with the aid of the high magnification and lighting capabilities of the slit lamp biomicroscope. In the course of glaucoma follow-up examination, attention is generally immediately focused on the eye itself. As a result of the high power magnification needed only one eye is seen at a time and the eye is seen at a high enough power that the lashes are not in focus. […]

SMILES: CCNC(=O)CCC/C=C\C[C@@H]1[C@@H](/C=C/[C@@H](O)CCc2ccccc2)[C@H](O)C[C@@H]1O [bimatoprost]
- lash appearance in the treated eye versus the non-treated eye: longer, thicker, and fuller
